Experimental data as given in patent US20240390490A1, “PHARMACEUTICAL COMPOSITIONS FOR THE TREATMENT OF CANCERS” (Rutgers, The State University of New Jersey, priority 2021, published 2024).

How the values were obtained:
Assay type in all cases: in vivo, rat
[1] = system: MDA-MB-231-cell-derived xenografts; assay: Survival study of nude rats inoculated with MDA-MB-231 cells; details: Kaplan-Meier; control animals about 28 days
Experimental: For the following study and survival study, MDA-MB 231 cells (ATCC) were grown until about 90% confluence just 1 day before injection. On the day of injection, after checking cell viability with trypan blue, MDA-MB 231 cells were diluted in PBS at a final concentration of 1×10^7 cells/rat in 200-μl of PBS-50% Matrigel (BD Biosciences, San Jose, CA) mixture and injected subcutaneously (SC) into the right flank of the rats. […] Tumor shrinkage/growth was measured in animals daily and animal weights were measured every other day. […] Three dimensions of tumor were measured using electronic calipers, and tumor volumes were calculated by the formula L×W^2/2. The mean±SEM of tumor volume was calculated weekly for each experimental group, and the data are expressed as mean absolute tumor volume. After the animals were sacrificed, the subcutaneous tumors were excised intact from the rats to determine the tumor weight in grams and photographed to visualize differences in tumor morphology and compare size. A portion of the excised tumors was snap-frozen by immersion in liquid nitrogen and stored at −80° C. until further use.
The animals were treated with the same drug treatment regimens and euthanized as described previously. […] At the endpoint (prior to the onset of death), the animals were euthanized, and the survival curves were plotted in a Kaplan-Meier survival curve.

[2] = system: NK cells, monocytes and macrophages in PBMC and spleen; assay: Flow cytometry of immune cells in PBMC and spleen of xenografted rats; details: for NK cell numbers in PBMC and spleen: CD161a+ NK cells, flow cytometry
Experimental: Peripheral blood mononuclear cells (PBMC) from control and drug-treated rats were isolated from freshly obtained EDTA whole blood by density gradient purification (Lymphoprep™, Stemcell Technologies™, Vancouver, BC, Canada) using 15 mL SepMate™ tubes (Stemcell Technologies™) as per the manufacture's protocol. The pelleted cells (PBMC) were counted in a hemocytometer and assayed for viability by the trypan blue dye exclusion method. PBMC cell pellets from 3 animals in each group were pooled, washed three times with PBS, and finally resuspended in 2 ml RPMI medium containing 10% heat-inactivated FBS (HI-FBS) and used for NK cell cytotoxicity. Aliquots of PBMC were frozen down at −80° C. by resuspending cells in freezing media containing HI-FBS and 10% DMSO in aliquots of 5-10×10^6 cells/mL using Nalgene Mr. Frosty Cryo 1° C. freezing containers (Thermo Fisher Scientific) before storage in liquid nitrogen. For flow cytometric analysis, frozen PBMC was thawed and resuspended in RPMI-1640 and was evaluated for viability by trypan blue, and all were […], then washed with PBS before starting flow cytometer experiments.
Tumor-infiltrating immune cells were collected from MDA-MB-231 cell xenograft tumors to examine and compare the immune cell population among control and drug-treated animals. Briefly, single-cell suspensions of tumor tissue were achieved by mincing the tissue with a scalpel blade using a crisscross method, ground with 1-ml of ACK lysing buffer to remove red blood cells. The cell suspensions were filtered through a 70-micron sieve and then washed with PBS. Cells from the tumor were collected and dispersed with 100 μl of PBS and stained by the addition of fluorescence-conjugated antibodies. For flow cytometry experiments, single-cell suspension derived from tumors, PBMC, and splenocytes were used to characterize the immune cell population. Fluorophore-conjugated antibodies were used to detect surface markers of specific cell types and markers are as follows: for NK cells (CD161a (10/78)), tissue macrophage (RT1B (OX-6)), dendritic cells (CD103 (OX-62)), peripheral monocytes (CD11b (ED8)), B cells (CD45RA (OX-33)), and DAPI (Sigma) was used to exclude dead cells.
Immune cells from the tumor, PBMC, and splenocyte samples were examined by following the gating strategy as described below. First, side scatter area (SSC-A) versus forward scatter area (FSC-A) were used to exclude cellular debris, then forward scatter height (FSC-H) versus FSC-A were used to select single cells. […] Additional negative controls (isotype control and fluorescence minus one (FMO)) were also used to determine any non-specific binding in the present study. The data collected from each sample were exported and analyzed using FlowJo™ version 10.7.

[3] = system: plasma cytokines and chemokines; assay: Plasma cytokines multiplex immunoassay
Source text: After the end of the drug treatment period, plasma samples from control and drug-treated rats were processed and used for cytokine detection. Cytokines were quantified in plasma samples using the ProcartaPlex multiplex immunoassay technology. These immunoassays are bead-based assays for protein quantification based on the principles of a sandwich Elisa with the use of Luminex® xMAP® (multianalyte profiling) technology. The Rat Cytokine & Chemokine 22-plex ProcartaPlex Panel is a preconfigured multiplex immunoassay kit that measures 22 protein targets using Luminex xMAP technology. Plasma samples were diluted with universal assay buffer (1:1) and added into a 96-well flat bottom plate to the magnetic beads. The plate was sealed and covered before incubation of 2 hours at room temperature with 500 rpm shaking. After inserting the plate into the handheld magnetic plate washer, the plate was washed 3 times using a specific wash buffer. 25 μL of detection antibody mixture was to the plate and incubated it for 30 minutes at room temperature at 500 rpm. The plate was washed 3 times. Then 50 μL of SAPE solution were added to the plate before a novel 30-minute incubation at room temperature at 500 rpm. The plate was washed 3 times. Finally, 120 μL of reading buffer were add to the plate and incubated for 5 minutes at room temperature at 500 rpm before reading and analyzing with the Luminex™ instrument (MAGPIX® xPONENT®, R&D System, ThermoFisher). Median fluorescence index (MFI) was calculated and presented.

SMILES | mean life span (survival) [1] [days] | NK cell numbers in PBMC and spleen [2] | chemokines RANTES and MCP-1 [3] | IFN-γ [3] | macrophage numbers in spleen ([2]; RT1B+ macrophages) | inflammatory cytokines and chemokines G-CSF/CSF-3, IL-1 alpha, IL-10, IL-6, IL-5, Gro-α, TNF-α, MCP-3, and IL-17A [3]
CC1(C)SSC(C)(C)[C@@H](NC(=O)[C@@H](N)Cc2ccc(O)cc2)C(=O)NCC(=O)N[C@@H](Cc2ccccc2)C(=O)N[C@H]1C(=O)O [DPDPE, (D-Pen^2, D-Pen^5)-enkephalin] | 40 | increased | inhibited |  |  | 
O=C1CC[C@@]2(O)[C@H]3Cc4ccc(O)c5c4[C@@]2(CCN3CC2CC2)[C@H]1O5 [NTX, 17-(cyclopropylmethyl)-4,5α-epoxy-3,14-dihydroxymorphinan-6-one] | 45 | increased | inhibited | elevated |  | 
CC(C)NCC(O)COc1cccc2ccccc12 (stereo not shown) [PRO, propranolol] | 45 | increased | inhibited | elevated | reduced | inhibited
